Measurements taken from PMC10010161 (RSC Advances, 2023).
Where a SMILES comes first, the peptide text is derived from it.

Assays:
Horizon-LBA = assay type: in vitro ADME; conditions: DOPC; for relative permeability compared with CsA (in words): 2 h; for degree of decrease of permeability coefficient relative to 1: 1.5 h
[1] = PAMPA; cited from earlier work
Caco-2 = Caco-2 assay; cited from earlier work

Molecule | relative permeability compared with CsA (in words) (Horizon-LBA) | degree of decrease of permeability coefficient relative to 1 (Horizon-LBA) | also measured
CC[C@@H]1NC(=O)[C@H](C)N(C)C(=O)[C@H](C(C)C)N(C)C(=O)[C@H](CC(C)C)N(C)C(=O)[C@H](CC(C)C)N(C)C(=O)[C@@H](C)NC(=O)[C@H](C)NC(=O)[C@H](CC(C)C)N(C)C(=O)[C@H](C(C)C)NC(=O)[C@H](CC(C)C)N(C)C(=O)CN(C)C1=O [compound 1] | higher permeability than CsA | – | –
CC[C@@H]1NC(=O)[C@H](CC(C)C)N(C)C(=O)[C@H](C(C)C)N(C)C(=O)[C@H](CC(C)C)N(C)C(=O)[C@H](CC(C)C)N(C)C(=O)[C@@H](C)NC(=O)[C@H](C)NC(=O)[C@H](CC(C)C)N(C)C(=O)[C@H](C(C)C)NC(=O)[C@H](CC(C)C)N(C)C(=O)CN(C)C1=O [compound 2] | significant differences in the relative permeability of 2 and 3 from CsA were not observed | – | –
CC[C@@H]1NC(=O)[C@H]([C@@H](C)O)N(C)C(=O)[C@H](C(C)C)N(C)C(=O)[C@H](CC(C)C)N(C)C(=O)[C@H](CC(C)C)N(C)C(=O)[C@@H](C)NC(=O)[C@H](C)NC(=O)[C@H](CC(C)C)N(C)C(=O)[C@H](C(C)C)NC(=O)[C@H](CC(C)C)N(C)C(=O)CN(C)C1=O [compound 3] | significant differences in the relative permeability of 2 and 3 from CsA were not observed | – | –
CC[C@@H]1NC(=O)[C@H](C)N(C)C(=O)[C@H](C(C)C)N(C)C(=O)[C@H](CC(C)C)N(C)C(=O)[C@H](CC(C)C)N(C)C(=O)[C@@H](C)NC(=O)[C@H](C)NC(=O)[C@H](CC(C)C)N(C)C(=O)[C@H](C(C)C)NC(=O)[C@H](C)N(C)C(=O)CN(C)C1=O [compound 5] (HELM PEPTIDE1{A.[dA].[meL].[meL].[meV].[meA].[Abu].[Sar].[meA].V.[meL]}$PEPTIDE1,PEPTIDE1,1:R1-11:R2$$$V2.0) | – | less than 50% | –
CC[C@@H]1NC(=O)[C@H](C)N(C)C(=O)[C@H](C(C)C)N(C)C(=O)[C@H](CC(C)C)N(C)C(=O)[C@H](C)N(C)C(=O)[C@@H](C)NC(=O)[C@H](C)NC(=O)[C@H](CC(C)C)N(C)C(=O)[C@H](C(C)C)NC(=O)[C@H](CC(C)C)N(C)C(=O)CN(C)C1=O [compound 8] (HELM PEPTIDE1{A.[dA].[meA].[meL].[meV].[meA].[Abu].[Sar].[meL].V.[meL]}$PEPTIDE1,PEPTIDE1,1:R1-11:R2$$$V2.0) | – | less than 50% | –
cyclosporin O [CsO] | – | – | permeability compared with CsA (in words) [1]: lower permeability of CsO than CsA; permeability compared with CsA (in words) (Caco-2): lower permeability of CsO than CsA
